Reference: PMC10287695, “Non-covalent inhibitors of thioredoxin glutathione reductase with schistosomicidal activity in vivo” (Nature Communications, 2023)
Values joined by “and” are separate entries in the source; they are usually repeats but may differ in a detail not shown here. Identical values can stand only once. “Also recorded” adds a separate entry of the source. Like-named read-outs stand apart in the source and are kept apart here.

Experiments:
[1] = Pharmacokinetics, intraperitoneal administration; format: in vivo, Swiss Webster mice; conditions: for Plasma concentration, single animal / concentration at 0 h / concentration at 0.5 h / concentration at 1 h / concentration at 2 h: IP; for Plasma concentration, single animal / concentration at 0 h / concentration at 0.5 h / concentration at 1 h / concentration at 2 h / concentration at 30 min / concentration at 60 min / concentration at 120 min / plasma concentration: 100 mg/kg; for concentration at 0 h / concentration at 0.5 h / concentration at 1 h / concentration at 2 h / concentration at 30 min / concentration at 60 min / concentration at 120 min / Cmax / half-life: male, Swiss Webster, mouse, plasma, ip; for concentration at 30 min / concentration at 60 min / concentration at 120 min / Cmax / half-life / overt toxicity / plasma concentration: mice; for Cmax: at 30 min; for half-life: estimated from the time points available
Experimental: All the mice were weighed and dosed intraperitoneally accordingly at 100 mg/kg body weight with freshly prepared 1 or 2.
Blood was collected by submandibular puncture into 1 mL Eppendorf tubes, the plasma was separated and stored in −80 °C until used. A 25 µl of mouse plasma was transferred into 1.5 ml centrifuge tube which was spiked with 2.5 µl of internal standard (IS) working standard solution […] to get final IS contraction of 250 ng/ml and the solution was vortexed. An aliquot of 75 µl of methanol/0.15 formic acid was added and gently vortexed for 2 min. The samples then centrifuged for 20 min at 4 °C and 15000 × g. A clear supernatant (50 µl) with added 50 µl mobile phase (reconstitution solution) from each extraction was then transferred into a 250 µl autosampler vial. A 3 µl aliquot of each sample was injected for LC-MSMS analysis.
The total run time of 2 min with an injection volume of 3 μl at column temperature 40 °C were efficient to achieve accepted results.
A Shimadzu LC20AD, Ultra Performance Liquid Chromatography (UPLC) system (Shimadzu Corporation, Kyoto, Japan) equipped with Shimadzu 8040 triple quadrupole (QqQ) mass analyzer (Shimadzu Corporation, Kyoto, Japan) with an electrospray ionization source (ESI) operated in the positive charge mode for the quantification of 1 and 2.

[2] = Stability of compound under biochemical assay conditions with recombinant TGR (LC-MS); format: physicochemical; conditions: with or without NADPH
Experimental: TGR assay solutions (1 ml each) were prepared as described in the main manuscript. […] Each of the reaction mixtures were terminated by the addition of 250 µl of ethyl acetate, extracted with 1 ml of methyl tert-butyl ether. The organic layer was evaporated in vacuo, and the residue was redissolved in 0.5 mL of 50% MeOH before injection onto LC column. LC-MS analysis was done on a Waters SYNAPT quadrupole/time-of-flight mass spectrometer operated in positive ion electrospray mode. The column was Waters XBridge C8 column and gradient was from 20-90% MeCN/0.1% formic acid over 12 min.

[3] = target: T1, TGR (Schistosoma mansoni, UniProt Q962Y6); format: biochemical, S. mansoni; conditions: 6 hr preincubation
T1 construct: made in house
T1 sequence (Q962Y6 1-598): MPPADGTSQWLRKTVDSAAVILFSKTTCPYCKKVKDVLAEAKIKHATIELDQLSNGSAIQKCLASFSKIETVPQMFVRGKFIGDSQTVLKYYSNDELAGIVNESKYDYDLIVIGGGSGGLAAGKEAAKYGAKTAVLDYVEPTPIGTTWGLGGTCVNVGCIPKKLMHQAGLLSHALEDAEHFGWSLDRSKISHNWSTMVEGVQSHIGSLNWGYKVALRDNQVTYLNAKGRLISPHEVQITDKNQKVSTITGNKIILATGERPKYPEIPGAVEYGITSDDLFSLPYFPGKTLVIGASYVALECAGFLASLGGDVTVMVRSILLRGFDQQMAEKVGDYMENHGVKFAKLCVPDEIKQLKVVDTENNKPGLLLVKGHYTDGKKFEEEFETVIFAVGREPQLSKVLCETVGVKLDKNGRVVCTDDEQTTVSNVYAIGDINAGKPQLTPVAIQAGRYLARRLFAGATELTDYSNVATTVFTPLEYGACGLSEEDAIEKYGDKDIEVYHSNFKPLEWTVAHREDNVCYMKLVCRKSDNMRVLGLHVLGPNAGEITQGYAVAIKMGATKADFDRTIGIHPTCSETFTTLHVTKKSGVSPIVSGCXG

[4] = 0 Hour, read-out: Plasma concentration, Average
[5] = 0 Hour, read-out: Plasma concentration, single animal
[6] = 0.5 Hour, read-out: Plasma concentration, Average
[7] = 0.5 Hour, read-out: Plasma concentration, single animal
[8] = 1 Hour, read-out: Plasma concentration, Average
[9] = 1 Hour, read-out: Plasma concentration, single animal
[10] = 2 Hour, read-out: Plasma concentration, Average
[11] = 2 Hour, read-out: Plasma concentration, single animal

Compound | concentration at 0 h [1, 4] | concentration at 0 h [1, 5] | concentration at 0.5 h [1, 6] | concentration at 0.5 h [1, 7] | concentration at 1 h [1, 8] | concentration at 1 h [1, 9] | concentration at 2 h [1, 10] | concentration at 2 h [1, 11] | concentration at 30 min ([1]; 100 mg/kg i.p., 30 min) | concentration at 60 min ([1]; 100 mg/kg i.p., 60 min) | concentration at 120 min ([1]; 100 mg/kg i.p., 120 min) | concentration at 30 min ([1]; intraperitoneal, 30 min) | concentration at 60 min ([1]; intraperitoneal, 60 min) | concentration at 120 min ([1]; intraperitoneal, 120 min) | Cmax ([1]; 100 mg/kg i.p.) | half-life ([1]; 100 mg/kg i.p.) | overt toxicity ([1]; 100 mg/kg i.p.) | plasma concentration ([1]; 100 mg/kg i.p., 30 min) | plasma concentration ([1]; 100 mg/kg i.p., 60 min) | plasma concentration ([1]; 100 mg/kg i.p., 120 min) | further results
Cc1oc(-c2ccc3c(c2)OCO3)nc1CN[C@@H]1C[C@@H]2C[C@H]([C@H]1C)C2(C)C [Compound 1] | 0 nM and 0 ng/mL | 0 nM and 0 ng/mL | 4.11 µM and 1510 ng/mL | 4.16 µM and 1530 ng/mL | 3.28 µM and 1210 ng/mL | 3.16 µM and 1160 ng/mL | 2.35 µM and 865 ng/mL | 2.05 µM and 754 ng/mL | 4.11 ± 0.047 µM | 3.28 ± 0.318 µM | 2.35 ± 0.277 µM | 1510 ± 17 ng/mL | 1210 ± 117 ng/mL | 865 ± 102 ng/mL | 4.1 µM | ~1.5 h | no overt toxicity | 4.1 µM | 3.3 µM | 2.4 µM | Plasma concentration, single animal ([1]; 0 Hour, listed as 1 (8VP70)): 0.000 uM (2×) and 0.000 ug/mL (2×); Plasma concentration, single animal ([1]; 0.5 Hour, listed as 1 (8VP70)): 4.093 uM and 4.069 uM and 1.508 ug/mL and 1.499 ug/mL; Plasma concentration, single animal ([1]; 1 Hour, listed as 1 (8VP70)): 3.040 uM and 3.641 uM and 1.120 ug/mL and 1.342 ug/mL; Plasma concentration, single animal ([1]; 2 Hour, listed as 1 (8VP70)): 2.409 uM and 2.589 uM and 0.888 ug/mL and 0.954 ug/mL
CCc1ccccc1-c1nc(CN[C@@H]2C[C@@H]3C[C@H]([C@H]2C)C3(C)C)c(C)o1 [Compound 2] | 0 nM and 0 ng/mL | 0 nM and 0 ng/mL | 4.8 µM and 1690 ng/mL | 4.12 µM and 1450 ng/mL | 3.91 µM and 1520 ng/mL | 3.29 µM and 1600 ng/mL | 3.06 µM and 1080 ng/mL | 2.39 µM and 846 ng/mL | 4.8 ± 0.612 µM | 3.91 ± 0.674 µM | 3.06 ± 0.578 µM | 1690 ± 216 ng/mL | 1520 ± 158 ng/mL | 1080 ± 202 ng/mL | 4.8 µM | ~1.5 h | no overt toxicity | 4.8 µM | 3.9 µM | 3.0 µM | formation of derivatives under biochemical assay conditions [2]: No additional ions except for those corresponding to 2 were detected; also recorded: no formation of derivatives; Plasma concentration, single animal ([1]; 0 Hour, listed as 2 (8VP101)): 0.000 uM (2×) and 0.000 ug/mL (2×); Plasma concentration, single animal ([1]; 0.5 Hour, listed as 2 (8VP101)): 4.991 uM and 5.302 uM and 1.758 ug/mL and 1.868 ug/mL; Plasma concentration, single animal ([1]; 1 Hour, listed as 2 (8VP101)): 4.630 uM and 3.814 uM and 1.631 ug/mL and 1.343 ug/mL; Plasma concentration, single animal ([1]; 2 Hour, listed as 2 (8VP101)): 3.386 uM and 3.401 uM and 1.193 ug/mL and 1.198 ug/mL
Cc1oc(-c2ccccc2)nc1CN[C@@H]1C[C@@H]2C[C@H]([C@H]1C)C2(C)C [Compound 3] | – | – | – | – | – | – | – | – | – | – | – | – | – | – | – | – | – | – | – | – | Vmax ([3]; 35 µM inhibitor): 0.011 ± 0.0002 ΔA412/min; Vmax ([3]; 50 µM inhibitor): 0.0096 ± 0.0002 ΔA412/min
